# In patent publication US20230241088A1, “COMPOSITION FOR PREVENTING OR TREATING LUNG CANCER COMPRISING ORTHO-TOPOLIN RIBOSIDE AS ACTIVE INGREDIENT” (CHUNG-ANG UNIVERSITY INDUSTRY-ACADEMY COOPERATION FOUNDATION, priority 2022, published 2023):
# Where “and” joins values, the source holds several entries; their conditions need not be identical. Identical values can stand only once. Like-named read-outs stand apart in the source and are kept apart here.
# What was measured:
# A549 = test: MTT cell viability assay, A549; assay type: cell-based, Human; details: 48 hours
# Experimental: (§1) Human NSCLC cell lines A549, H1437, H2087, H522, and HCC827 were obtained from the Korean Cell Line Bank (KCLB, Seoul, Korea). These cells were cultured in RPMI-1640 medium (Gibco, N.Y., USA) supplemented with 10% FBS (Gibco) and 1% penicillin-streptomycin (HyClone Laboratories, Logan, Utah, USA). All cell lines were cultured under standard conditions (5% CO2, humid environment, 37° C.). A549 cells were seeded at a density of 1×10^4 cells/well and H1437, H2087, H522, HCC827, and MRCS cells at a density of 2×10^4 cells/well in 96-well plates and were cultured until cells reach approximately 70-80% confluency. The NSCLC cells were treated with plant hormones for 48 hours. Stock solution of each plant hormone was diluted with culture medium, wherein concentrations of DMSO, water, methanol, and ethanol in the culture medium were below 1% (v/v). The half-maximal inhibitory concentration (IC50) was calculated using CompuSyn software (ComboSyn Inc., Paramus, N.J., USA).
# (§2) The inhibitory effect of plant hormones and their derivatives was investigated on 5 NSCLC cell lines (A549, H1437, H2087, H522, and HCC827). The NSCLC cells were treated with ABA, Cor, ethephon, GR-24, IAA, KR, MJ, N6b, N6i, oTR, and SS-HCS at concentrations of 0.1, 0.5, 1, 5, 10, 50, and 100 μM. Cell viability and IC50 values for 48 hours were investigated by performing the MTT assay.
# H1437 = test: MTT cell viability assay, H1437; assay type: cell-based, Human; details: 48 hours
# Experimental: as §1, §2
# H2087 = test: MTT cell viability assay, H2087; assay type: cell-based, Human; details: 48 hours
# Experimental: as §1, §2
# H522 = test: MTT cell viability assay, H522; assay type: cell-based, Human; details: 48 hours
# Experimental: as §1, §2
# HCC827 = test: MTT cell viability assay, HCC827; assay type: cell-based, Human; details: 48 hours
# Experimental: as §1, §2
# [1] = tested on: NSCLC cell lines (A549, H1437, H2087, H522, and HCC827); test: GC-MS and nanoESI-MS metabolite and lipid profiling of NSCLC cells; assay type: cell-based, Human
# Experimental: The cells were seeded at a density of 2×10^5 cells/mL in a 6-well plate and treated with oTR (10 μM) for 48 hours. The cells were pooled from 3 wells in the 6-well plate and centrifuged at 1,000×g at 4° C. for 2 minutes. The cells were frozen in liquid nitrogen and stored at −70° C. until analysis. The cells were lysed by two freeze-thaw cycles using liquid nitrogen and 37° C. water bath. Protein concentrations were determined using the Bio-Rad protein assay kit (Thermo Scientific, Rockford, Ill.). Bovine serum albumin (BSA) was used as a standard for normalization. The cells were freeze-dried and stored at −70° C. until additional analysis.
# (§3) To perform metabolite and lipid analyses of the extracted samples of NSCLC cells and xenograft tumor tissues, GC-MS and nanoESI-MS analyses were conducted according to a previously described method. For quality control (QC), the equal volume of mixture was taken from each sample to be analyzed.
# (§4) Raw data files of the lipid analysis (*.raw) were converted into *.mzXML format using the Proteo Wizard MSConvert software. The metabolite and lipid mass spectra were converted using the Expressionist® MSX software (version 2013.0.39, Genedata, Basel, Switzerland) for data processing. The data obtained from NSCLC cells were divided by the peak intensity of the internal standard and total protein content for normalization. The data obtained from the NSCLC xenograft model were divided by the peak intensity of the internal standard for normalization. The data obtained thereby were used for fold-change analysis using the MetaboAnalyst (version 5.0; http://www.metaboanalyst.ca). SPSS software (version 26, IBM, Somers, N.Y.) was used for significance examination for the results, and identification was conducted by Student's t-test and Mann-Whitney test. All data were mean-centered and pretreated to Pareto scaling for principal component analysis (PCA) and orthogonal partial least-squares discriminant analysis (OPLS-DA), performed using the SIMCA-P software (version 15.0.2, Sartorius Stedim Data Analytics AB, Umea, Sweden). Cross validations and permutation tests (100 times) were performed to evaluate the goodness of fit value and predictability of the OPLS-DA model. Volcano plots were generated using the GraphPad Prism 9.0.
# oTR-induced alterations of metabolic and lipidomic profiles were analyzed using 5 NSCLC cell lines (A549, H1437, H2087, H522, and HCC827) and xenograft tumor tissues by performing GC-MS and nanoESI-MS analyses. The relative changes in identified metabolites and intact lipid species are shown as fold-changes. […]
# xenograft tumor tissues = test: GC-MS and nanoESI-MS metabolite and lipid profiling of xenograft tumor tissues; assay type: in vivo, nude mice (female, BALB/cSlc-nu/nu)
# Experimental: The tumor tissue was weighed above 25 mg, and 0.3 mL of ice-cold methanol containing 0.1% BHT was added, followed by homogenization for 1 minutes. Homogenized samples were centrifuged at 10,000×g for 15 minutes at 4° C. The supernatant corresponding to 10 mg of the tissue was used, and metabolites and lipids were extracted using modified Folch method.
# as §3, §4
# oTR-induced alterations of metabolic and lipidomic profiles were analyzed using 5 NSCLC cell lines (A549, H1437, H2087, H522, and HCC827) and xenograft tumor tissues by performing GC-MS and nanoESI-MS analyses. The relative changes in identified metabolites and intact lipid species are shown as fold-changes. Myo-inositol, amino acids (β-alanine, aspartate, serine, threonine, glutamate, glycine, proline, and tyrosine), organic acids (malate and lactate), pyrimidines (uracil and uridine), creatinine, hypoxanthine, and putrescine decreased in oTR-treated NSCLC cells compared to those in NSCLC cells. These metabolites were the outcomes of consistent and significant alterations in 3 NSCLC cell lines compared to those of respective controls.
# [2] = tested on: A549 cells tumor xenograft; details: for tumor volume compared to control group: after the second treatment (day 7)
# Experimental: To evaluate the anticancer effect of oTR in tumor tissues, a tumor xenograft model was established by injecting 2.5×10^6 A549 cells into the flanks of nude mice (female, BALB/cSlc-nu/nu). After the tumor volume reached above 100 mm^3 after approximately 3 weeks, the mice were randomized into negative controls and experimental groups (5 mice were used per group). Mice were then injected with oTR solution into the tumor area twice a week for 3 weeks. oTR was dissolved in saline:DMSO (1:1, v/v), and 50 μL of oTR solution was injected into mice in a dose of 100 mg/kg or 150 mg/kg. […] Negative controls were injected with saline:DMSO (1:1, v/v) without oTR. Tumor volume, mouse body weight, and mouse survival were recorded twice a week before injecting oTR. Tumor length (a) and width (b) were measured using calipers and tumor volume (mm^3) was calculated by =(a×b^2)/2.
# Tumor xenograft mice were treated with oTR at two doses (100 mg/kg and 150 mg/kg). The tumor volume was measured twice a week for 3 weeks to evaluate the therapeutic effects of the drug in vivo.
# [3] = doses of 100 mg/kg or 150 mg/kg, previous study; cited from earlier work
# [4] = both oTR groups (100 and 150 mg/kg)
smiles,measurement,setting,value
"OC[C@H]1O[C@@H](n2cnc3c(NCc4ccccc4O)ncnc32)[C@H](O)[C@@H]1O [oTR, ortho topolin riboside]",IC50,A549,34.3 ± 4.4 µM
same,IC50,H1437,50 ± 6.55 µM
same,IC50,H2087,51.4 µM and 26.1 µM
same,IC50,H522,26.1 ± 2.47 µM
same,IC50,HCC827,29.7 ± 2.56 µM
same,lactate level,"[1]; all NSCLC cell lines, oTR 10 μM, 48 hours",significantly decreased
same,"levels of myo-inositol, amino acids, organic acids (malate and lactate), pyrimidines (uracil and uridine), creatinine, hypoxanthine, putrescine","[1]; oTR 10 μM, 48 hours, vs untreated NSCLC cells",decreased
same,"PC, PE, and PS species and Cer 18:1/22:0 levels",[1]; oTR-treated NSCLC cells,increased
same,levels of PG and PI species,[1]; oTR-treated NSCLC cells,decreased
same,"PC, PE, PG, and PI species levels",xenograft tumor tissues; 100 mg/kg and 150 mg/kg,increase
same,PS species levels,xenograft tumor tissues; 150 mg oTR-treated group vs control,increased
same,"level of aspartate, ascorbate, glucose, glutamate, ornithine, phenylalanine, proline, serine, threonine",xenograft tumor tissues; 150 mg/kg group vs control,significant reduction
same,"citrate, ornithine, and uridine levels",xenograft tumor tissues; [4],significantly decreased
same,"β-alanine, aminomalonate, glycerol, glycine, and uracil levels",xenograft tumor tissues; [4],increased
same,dose dependence of oTR-induced changes in tumor volume,[2]; 100 mg/kg vs 150 mg/kg,did not decrease in a dose-dependent manner
same,tumor volume compared to control group,[2]; 100 mg/kg,significantly decreased
same,tumor volume compared to control group,[2]; 150 mg/kg,significantly decreased
same,reduction of body weight relative to initial body weight,"[2]; mouse, in vivo",≤ 5%
same,acute toxicity,[3],no acute toxicity
